The results in this text go back to patent US9683014B2, “Dipeptide mimetics of NGF and BDNF neurotrophins” (UCHREZHDENIE ROSSIISKOI AKADEMII MEDITSYNSKIKH NAUK …, priority 2009, dated 2017).

Series [1] has as its system Hsp70. The experiment in a line: Western blot of Hsp70 in HT-22 cells. To be noted: for amount of Hsp70: 24 h after addition, GK-1, GK-2 10^−8 and 10^−5 M, GK-3 10^−6 M, GK-4 10^−7 M, GK-5 10^−6 M. It counts as cell-based, mouse. The protocol: (§1) The amount of Hsp70, Hsp32 and pTrkA was determined in the cytoplasmic fraction of HT-22 neuronal cells. For heat shock proteins, a test compound was added to the culture 24 hours prior to testing, before the cells were washed off the culture liquid with PBS. For pTrkA, a test compound was added to the culture immediately prior to the cell lysis just for 1 or 2 min, before the cells were washed off the culture liquid with PBS. Then the cells were mixed with the lysis buffer (50 mM Tris-HCl, 5 mM EDTA, 1 mM DTT, 1% Triton X-100, pH 7.5) at 4° C. and lysed for 5 min, then scraped off, transferred into a 1.5 ml centrifuge tube and centrifuged at 13000 rpm and 4° C. for 10 min. The supernatant containing cytosolic proteins was assayed by electrophoresis and immunoblotting. Proteins were separated on a 10% polyacrylamide gel (PAAG) and transferred from PAAG onto a PVDF membrane by electroelution for 45 min. Western blots were pre-incubated for 1 h in a TBST solution containing 1% Tween-20 and supplemented with 5% (w/v) skim milk. Western blots were then incubated with the primary polyclonal anti-Hsp32 antibody diluted 1:1000 or primary monoclonal anti-Hsp70 antibody diluted 1:1000 or primary monoclonal anti-phosphorylated tyrosine kinase A antibody diluted 1:1000 for 1 hour. Then the blots were washed and incubated with a secondary antibody conjugated to horseradish peroxidase (diluted 1:2000) for 1 hour. The detection of Hsp70, Hsp32 and pTrkA was carried out by the ECL reaction on a Kodak film.

For series [2], the system named is Hsp32. The experiment in a line: Western blot of Hsp32 in HT-22 cells. It counts as cell-based, mouse. The following applies: for amount of Hsp32: 24 h after addition, GK-1, GK-2 10^−8 and 10^−5 M, GK-3 10^−6 M, GK-4 10^−7 M, GK-5 10^−6 M. The method, then:
as §1

Series [3] concerns HT-22 cells. The experiment in a line: Oxidative stress (H2O2) model in cultured HT-22 cells (MTT test). It counts as cell-based, mouse. To be noted: for neuronal survival under oxidative stress: added 24 hours prior to the stress exposure, 10^−8 M to 10^−5 M; for Optical density (MTT): 24 h before H2O2. (Formazan colour is commonly taken as a measure of viable cells.)
Method: To induce an oxidative stress, the cells were placed in a growth medium containing 5% FBS, then a freshly prepared H2O2 solution was added to a final concentration of 1.5 mM and incubated for 30 min at 37° C. and 5% CO2. Thereafter, the medium was replaced with a new one and the cells were cultured for 4 h under the same conditions.
The determination of cell viability was carried out by MTT test. […] At the end of an experiment the growth medium was replaced with an MTT solution (0.5 mg/ml) and incubated for 30 min at 37° C. and 5% CO2. The MTT solution was then removed from the wells and DMSO was added to dissolve the formazan precipitate. Then the optical density was measured using a Multiscan (Thermo) spectrophotometer at a wavelength of 600 nm.
In series [4] the target is T1, tyrosine kinase A (TrkA) (Mus musculus, UniProt Q3UFB7).
T1 construct: phosphorylation of tyrosine kinase A in cultured hippocampal neuronal cell line HT22; endogenous in cells; host or cells: HT-22 hippocampal neuronal cell line
T1 sequence (Q3UFB7 34-799): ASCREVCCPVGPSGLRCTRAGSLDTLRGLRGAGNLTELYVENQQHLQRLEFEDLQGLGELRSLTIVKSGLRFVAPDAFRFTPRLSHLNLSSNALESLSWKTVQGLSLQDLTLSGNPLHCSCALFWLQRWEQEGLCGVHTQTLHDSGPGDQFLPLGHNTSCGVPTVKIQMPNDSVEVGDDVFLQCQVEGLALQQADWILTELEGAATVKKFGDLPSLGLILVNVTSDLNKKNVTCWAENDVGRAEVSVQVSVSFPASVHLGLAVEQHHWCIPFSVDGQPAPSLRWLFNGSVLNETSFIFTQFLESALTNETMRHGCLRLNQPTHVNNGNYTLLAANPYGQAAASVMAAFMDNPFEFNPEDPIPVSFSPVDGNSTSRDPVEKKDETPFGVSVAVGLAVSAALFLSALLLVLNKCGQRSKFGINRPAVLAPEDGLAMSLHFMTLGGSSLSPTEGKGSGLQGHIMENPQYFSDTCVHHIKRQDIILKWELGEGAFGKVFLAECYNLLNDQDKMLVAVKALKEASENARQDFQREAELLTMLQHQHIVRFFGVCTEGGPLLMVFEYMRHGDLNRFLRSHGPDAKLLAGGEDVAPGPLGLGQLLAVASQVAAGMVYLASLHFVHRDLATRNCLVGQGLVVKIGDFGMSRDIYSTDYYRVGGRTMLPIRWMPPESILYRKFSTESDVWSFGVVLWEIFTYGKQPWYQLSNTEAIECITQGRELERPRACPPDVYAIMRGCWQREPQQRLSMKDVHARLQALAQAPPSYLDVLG
The experiment in a line: Tyrosine kinase A phosphorylation in HT-22 cells (Western blot). It counts as cell-based. To be noted: first minute of exposure. The protocol: as §1

Series [5] relates to PC12 cells. The experiment in a line: Differentiation of PC12 cells and modulation of the differentiation-inducing activity of NGF. It is filed as cell-based, rat. The following applies: for distance of branching points of the longest processes from the cell body / length of the longest processes: peptide + NGF (GK-3 10^−6 M, GK-4 10^−7 M, GK-5 10^−6 M). The method, then:
The rat adrenal […] pheochromocytoma cell line PC12 was obtained from the Cell Culture Museum, RAN Institute of Molecular Genetics. The immortalized mouse hippocampal cell line HT-22 was a gift from Prof. F. Viegant, Utrecht University, the Netherlands.
At the time of plating, either NGF (100 ng/ml, positive control) or a test compound was added to a final concentration of 10^−5 to 10^−9 M in the growth medium. Thereafter, the test peptides and NGF were added to the medium every 24 hours in one series of experiments and every 48 hours in another series, for a total of 6 days. The extent of cell differentiation was estimated on the basis of the shape and size of the cells and the number and length of the processes.
NGF was used as a positive control at a final concentration of 100 ng/ml.

Series [6] concerns PC12 cell line. The experiment in a line: Cellular model of Parkinson's disease (MPTP, MTT test). It counts as cell-based, rat. The following applies: added 24 hours prior to MPTP 1 mM. The method, then:
To produce a model for Parkinson's disease, MPTP was used at a final concentration of 1 mM (Shimoke K., Chiba H. Nerve growth factor prevents 1-methyl-[…]-1,2,3,6-tetrahydropyridine-induced cell death via the Akt pathway by suppressing caspase-3-like activity using PC12 cells: relevance to therapeutic application for Parkinson's disease. J. Neurosci. Res. 2001, 63, 402-409). MPTP was added to the cell growth medium containing 1% FBS at 24 hours after passage. The peptides were added to the cell growth medium concurrently with MPTP or 24 h before MPTP. Cell viability was determined at 24 h using an MTT test.

The test system of series [7] is HT-22 cells. To be noted: added 24 hours prior to glutamate. The method, then:
The determination of cell viability was carried out by MTT test. MTT is a water soluble tetrazolium salt of yellow color which readily permeates cells. In living cells, MTT is converted into water insoluble formazan crystals of violet color. At the end of an experiment the growth medium was replaced with an MTT solution (0.5 mg/ml) and incubated for 30 min at 37° C. and 5% CO2. The MTT solution was then removed from the wells and DMSO was added to dissolve the formazan precipitate. Then the optical density was measured using a Multiscan (Thermo) spectrophotometer at a wavelength of 600 nm.

Setting [8] is: GK-1 10^−5 M added 30 minutes before GK-2.

Numbered stars: 1 amine (or outer) side, 2 acyl side, 3 side chain; on linkers, the order of the positions; unused ones are H or OH. Bridge positions count the residues as written; N and C are the ends. Square brackets hold non-standard residues; d marks the D form. Peptide text beside a SMILES is read from it. I, II: the chains in the order shown. Ethylenediamine = C(CN[*:2])N[*:1]; Suc = O=C(CCC(=O)[*:2])[*:1]; Ahx = NCCCCCC(=O)O

With `NCCCC[C@H](NC(=O)[C@H](CCC(=O)O)NC(=O)CCC(=O)O)C(N)=O` [GK-1, N-monosuccinyl-glutamyl-lysine amide] (Suc-Glu-Lys-NH2), the “amount of Hsp70” value in series [1] is on record as “no effect”. In addition, the “amount of Hsp70 induced by GK-2” value in series [1] (setting [8]) was “no increase”. In series [2], the “amount of Hsp32” value is listed as “no effect”. The “amount of Hsp32 induced by GK-2” value in series [2] (setting [8]) is “no increase”. In addition, the “effect on the neuroprotective effect of GK-2” value in series [3] (setting [8]) was “eliminated the neuroprotective effect of GK-2”. Further, in series [3], the “neuronal survival under oxidative stress” value is on record as “impaired the neuronal survival”. Further, the “level of phosphorylated tyrosine kinase A” value (“level” below) in series [4] is reported as “decreased”. Also, the “decrease of the differentiation-promoting effect of NGF” value in series [5] (GK-1 10^−5 M, counting differentiated and undifferentiated cells) came out at 50%.

`NCCCC[C@H](NC(=O)[C@H](CCC(=O)O)NC(=O)CCC(=O)O)C(=O)NCCCCCC(=O)NCCCNC(=O)CCCCCNC(=O)[C@H](CCCCN)NC(=O)[C@H](CCC(=O)O)NC(=O)CCC(=O)O` [GK-2a, bis-(N-monosuccinyl-glutamyl-lysyl-6-aminohexanoic acid) trimethylenediamide]: the “Optical density (MTT)” value is 0.108 ± 0.019^ in series [3] (Table 1.5, 10^−5M, control 0.1275 ± 0.021, H2O2 0.087 ± 0.006); 0.429 ± 0.02 in series [3] (Table 1.5, 10^−6M, control 0.1275 ± 0.021, H2O2 0.087 ± 0.006); 0.449 ± 0.024 in series [3] (Table 1.5, 10^−7M, control 0.1275 ± 0.021, H2O2 0.087 ± 0.006); 0.106 ± 0.028 in series [3] (Table 1.5, 10^−8M, control 0.1275 ± 0.021, H2O2 0.087 ± 0.006). For the same compound, the “neuronal survival under oxidative stress” value in series [3] is reported as “improved the neuronal survival”. For the same compound, in series [6], the “protective effect against MPTP” value was “protective effect”.

As for `NCCCC[C@H](NC(=O)[C@H](CCC(=O)O)NC(=O)CCC(=O)O)C(=O)NCCCCCNC(=O)[C@H](CCCCN)NC(=O)[C@H](CCC(=O)O)NC(=O)CCC(=O)O` [GK-2b, bis-(N-monosuccinyl-glutamyl-lysine)pentamethylenediamide], the “neuronal survival under oxidative stress” value in series [3] is recorded as “improved the neuronal survival”.

For `NCCCC[C@H](NC(=O)[C@H](CCC(=O)O)NC(=O)CCC(=O)O)C(=O)NCCNC(=O)[C@H](CCCCN)NC(=O)[C@H](CCC(=O)O)NC(=O)CCC(=O)O` [GK-2e, bis-(N-monosuccinyl-glutamyl-lysine)ethylenediamide] (I: Suc-Glu-Lys / II: Suc-Glu-Lys; linker I:C-II:C via Ethylenediamine), the “neuronal survival under oxidative stress” value in series [3] is given as “improved the neuronal survival”.

In the case of `CC(=O)N[C@@H](CCCCN)C(=O)N[C@@H](CCC(=O)O)C(N)=O` [GK-3, N-acetyl-lysyl-glutamic acid amide] (Ac-Lys-Glu-NH2), the “amount of Hsp70” value in series [1] was “no effect on Hsp70”. Further, in series [2], the “amount of Hsp32” value is “small increase”. Further, the “Optical density (MTT)” value in series [3] (Table 1.6, 10^−5M, control 0.111 ± 0.009, H2O2 0.093 ± 0.004) is recorded as 0.109 ± 0.019; in series [3] (Table 1.6, 10^−6M, control 0.111 ± 0.009, H2O2 0.093 ± 0.004), 0.110 ± 0.014^; in series [3] (Table 1.6, 10^−7M, control 0.111 ± 0.009, H2O2 0.093 ± 0.004) it was 0.099 ± 0.014; in series [3] (Table 1.6, 10^−8M, control 0.111 ± 0.009, H2O2 0.093 ± 0.004), 0.091 ± 0.014. In series [3], the “neuronal survival under oxidative stress” value is “improved the neuronal survival”. The “level” value in series [4] was “increased”. In series [5], the “distance of branching points of the longest processes from the cell body” value (“distance” for short) amounted to 25 μm. Moreover, the “length of the longest processes” value in series [5] is reported as “not significantly different”. The “protective effect against MPTP” value in series [6] is given as “protective effect”.

`CC(=O)NC(CCCCN)C(=O)NC(CCC(=O)O)C(=O)NCCCCCCNC(=O)C(CCC(=O)O)NC(=O)C(CCCCN)NC(C)=O` (centres unmarked) [GK-4, bis-(N-acetyl-lysyl-glutamic acid) hexamethylenediamide]: in series [1], the “amount of Hsp70” value is on record as “significant increase”. Besides, the “protective effect against glutamate cytotoxicity” value in series [7] is recorded as “protective effect”. Also, the “amount of Hsp32” value in series [2] is “no effect on Hsp32”. For the same compound, the “Max. length of cell processes, μm on day 6” value in series [5] (10^−6M + NGF 30 ng/ml) was 67 ± 4.5′ μm; in series [5] (10^−6M + NGF 50 ng/ml), 73 ± 9.5′ μm; in series [5] (10^−6M + NGF 100 ng/ml), 55 ± 11.3′ μm; in series [5] (10^−7M + NGF 30 ng/ml), 52 ± 10.3′ μm; in series [5] (10^−7M + NGF 50 ng/ml), 56 ± 13.2′ μm; in series [5] (10^−7M + NGF 100 ng/ml), 65 ± 12.2′ μm. The “intercalary neurons in the differentiated cell population” value in series [5] (GK-4 10^−7 M + NGF) was 90%. Besides, the “distance” value in series [5] is reported as 20 μm. Besides, in series [5], the “length of the longest processes” value stood at 65 μm. Moreover, the “protective effect against MPTP” value in series [6] is reported as “protective effect”.

`NCCCCCC(=O)NCC(=O)N[C@@H](CCCCN)C(N)=O` [GK-5, N-(6-aminocaproyl)-glycyl-lysine amide] (H-[Ahx]-Gly-Lys-NH2): in series [1], the “amount of Hsp70” value is given as “no effect on Hsp70”. The “amount of Hsp32” value in series [2] is “increase in the synthesis of Hsp32”. The “Optical density (MTT)” value in series [3] (Table 1.8, 10^−5M, control 0.097 ± 0.009, H2O2 0.056 ± 0.009) is 0.065 ± 0.008; in series [3] (Table 1.8, 10^−6M, control 0.097 ± 0.009, H2O2 0.056 ± 0.009), 0.066 ± 0.008^; in series [3] (Table 1.8, 10^−7M, control 0.097 ± 0.009, H2O2 0.056 ± 0.009), 0.062 ± 0.009; in series [3] (Table 1.8, 10^−8M, control 0.097 ± 0.009, H2O2 0.056 ± 0.009), 0.058 ± 0.007. The “neuronal survival under oxidative stress” value in series [3] is on record as “improved the neuronal survival”. Further, the “level” value in series [4] is “increased”. Besides, in series [5], the “distance” value was “not different”. Moreover, the “length of the longest processes” value in series [5] came to 55 μm. The “differentiation of PC-12 cells” value in series [5] (peptide alone, 10^−8 to 10^−5 M, NGF 100 ng/ml as positive control) is “differentiation-promoting effect at 10^−6 M and 10^−5 M”. The “protective effect against MPTP” value in series [6] is “inactive”.

Turning to `NCCCCCC(=O)NCC(=O)N[C@@H](CCCCN)C(=O)NCCCCCCNC(=O)[C@H](CCCCN)NC(=O)CNC(=O)CCCCCN` [GK-6, bis-(N-(6-aminocaproyl)glycyl-lysine) hexamethylenediamide], in series [3], the “neuronal survival under oxidative stress” value is “improved the neuronal survival”.
